Data reported in patent US8691753B2 (priority 2009, dated 2014).
Like-named read-outs stand apart in the source and are kept apart here.

What was measured:
Assay type in all cases: biochemical
MMP-12h = MMP-12h (Homo sapiens (Human), UniProt P39900); assay: Inhibition constant (Ki) on MMP-12h
MMP-9h = MMP-9h (Homo sapiens (Human), UniProt P14780); assay: Inhibition constant (Ki) on MMP-9h
Procedure, shortened: (§1)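 Ki values were determined against the human enzymes using a previously published inhibition protocol.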

MMP-8h = MMP-8h (Homo sapiens (Human), UniProt P22894); assay: Inhibition constant (Ki) on MMP-8h
human MMPs = assay: Inhibition of the panel of human MMPs (overall statements, selectivity); settings: for selectivity factor F = Ki MMP-x/Ki MMP-12: other human MMPs versus MMP-12; for inhibitory activity toward MMPs (in words): summary of table I
MMP-13h = MMP-13h (Homo sapiens (Human), UniProt P45452); assay: Inhibition constant (Ki) on MMP-13h
Procedure, shortened: as §1

MMP-7h = MMP-7h (Homo sapiens (Human), UniProt P09237); assay: Inhibition constant (Ki) on MMP-7h
Excerpt: (§2) The inhibition constant Ki of these compounds has been determined according to the protocol described by Devel et al, 2006, J. Biol. Chem. (7).
(§3) In this table I and also in table II below, “h” corresponds to human. All of the compounds have therefore been evaluated on human MMPs.

MMP-2h = MMP-2h (Homo sapiens (Human), UniProt P08253); assay: Inhibition constant (Ki) on MMP-2h
Procedure, shortened: as §1

MMP-10h = MMP-10h (Homo sapiens (Human), UniProt P09238); assay: Inhibition constant (Ki) on MMP-10h
MMP-14h = MMP-14h (Homo sapiens (Human), UniProt P50281); assay: Inhibition constant (Ki) on MMP-14h
Procedure, shortened: as §1

MMP-3h = MMP-3h (Homo sapiens (Human), UniProt P08254); assay: Inhibition constant (Ki) on MMP-3h
Procedure, shortened: as §1

MMP-1h = MMP-1h (Homo sapiens (Human), UniProt P03956); assay: Inhibition constant (Ki) on MMP-1h
Excerpt: as §2, §3

[1] = read-out: Ki MMP-12h, human MMP-12
[2] = read-out: Ki MMP-9h, human MMP-9
[3] = read-out: Ki MMP-8h, human MMP-8
[4] = read-out: Ki MMP-13h, human MMP-13
[5] = read-out: Ki MMP-7h, human MMP-7
[6] = read-out: Ki MMP-2h, human MMP-2
[7] = read-out: Ki MMP-10h, human MMP-10
[8] = read-out: Ki MMP-14h, human MMP-14
[9] = read-out: Ki MMP-3h, human MMP-3
[10] = read-out: Ki MMP-1h, human MMP-1

Sequence of MMP-9h (P14780 94-707): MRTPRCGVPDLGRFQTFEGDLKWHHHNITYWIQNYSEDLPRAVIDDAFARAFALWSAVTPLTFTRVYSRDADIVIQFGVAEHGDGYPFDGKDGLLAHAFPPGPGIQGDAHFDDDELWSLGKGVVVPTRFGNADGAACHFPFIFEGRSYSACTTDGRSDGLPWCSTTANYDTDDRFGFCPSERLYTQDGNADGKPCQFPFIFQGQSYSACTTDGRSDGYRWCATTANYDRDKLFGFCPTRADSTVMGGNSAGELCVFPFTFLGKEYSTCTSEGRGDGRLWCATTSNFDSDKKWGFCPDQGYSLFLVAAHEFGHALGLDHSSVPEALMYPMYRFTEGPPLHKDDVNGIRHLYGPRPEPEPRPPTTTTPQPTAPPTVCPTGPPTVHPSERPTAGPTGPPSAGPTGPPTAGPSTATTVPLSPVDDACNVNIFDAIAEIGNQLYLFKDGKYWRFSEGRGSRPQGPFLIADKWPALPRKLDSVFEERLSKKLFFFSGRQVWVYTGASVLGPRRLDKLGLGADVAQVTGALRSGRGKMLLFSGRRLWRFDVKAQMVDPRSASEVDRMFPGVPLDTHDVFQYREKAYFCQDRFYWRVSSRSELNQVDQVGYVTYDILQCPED
Sequence of MMP-7h (P09237 95-267): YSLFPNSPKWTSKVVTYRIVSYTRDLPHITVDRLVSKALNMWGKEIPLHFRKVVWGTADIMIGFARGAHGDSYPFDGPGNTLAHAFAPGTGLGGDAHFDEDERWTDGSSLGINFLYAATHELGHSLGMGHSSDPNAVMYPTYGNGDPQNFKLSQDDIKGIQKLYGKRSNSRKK
Sequence of MMP-10h (P09238 99-476): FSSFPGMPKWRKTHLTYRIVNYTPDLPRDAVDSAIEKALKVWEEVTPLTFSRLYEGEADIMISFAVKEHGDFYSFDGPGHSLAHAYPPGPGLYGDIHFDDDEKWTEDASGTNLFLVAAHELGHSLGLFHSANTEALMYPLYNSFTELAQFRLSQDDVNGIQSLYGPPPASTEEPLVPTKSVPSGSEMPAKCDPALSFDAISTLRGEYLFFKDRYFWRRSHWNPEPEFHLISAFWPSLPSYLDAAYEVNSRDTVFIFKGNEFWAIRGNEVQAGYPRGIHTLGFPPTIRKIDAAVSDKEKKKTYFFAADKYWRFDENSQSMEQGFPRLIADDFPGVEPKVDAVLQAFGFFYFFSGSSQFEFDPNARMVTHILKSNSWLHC
Sequence of MMP-12h (P39900 106-470): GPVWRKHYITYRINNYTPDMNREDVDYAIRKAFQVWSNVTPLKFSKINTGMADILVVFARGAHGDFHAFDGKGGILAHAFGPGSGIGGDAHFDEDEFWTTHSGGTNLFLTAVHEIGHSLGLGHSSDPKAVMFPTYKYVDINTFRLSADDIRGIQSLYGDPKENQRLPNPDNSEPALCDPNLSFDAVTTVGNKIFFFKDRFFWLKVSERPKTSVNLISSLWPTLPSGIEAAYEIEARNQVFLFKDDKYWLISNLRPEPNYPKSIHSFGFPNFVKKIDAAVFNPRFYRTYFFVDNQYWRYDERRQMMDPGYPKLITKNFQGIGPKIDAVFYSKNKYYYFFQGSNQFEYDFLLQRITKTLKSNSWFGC
Sequence of MMP-1h (P03956 100-469): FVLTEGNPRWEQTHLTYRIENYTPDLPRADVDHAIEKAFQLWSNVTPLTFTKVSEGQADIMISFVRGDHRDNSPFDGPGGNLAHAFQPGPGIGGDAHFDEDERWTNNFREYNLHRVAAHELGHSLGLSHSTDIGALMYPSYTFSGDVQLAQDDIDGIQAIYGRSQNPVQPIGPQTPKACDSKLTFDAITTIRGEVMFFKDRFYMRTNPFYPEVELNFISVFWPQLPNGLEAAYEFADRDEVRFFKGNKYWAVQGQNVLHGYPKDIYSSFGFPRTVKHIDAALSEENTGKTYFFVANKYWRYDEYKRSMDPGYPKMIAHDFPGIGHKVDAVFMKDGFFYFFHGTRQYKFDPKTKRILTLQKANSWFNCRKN
Sequence of MMP-8h (P22894 101-467): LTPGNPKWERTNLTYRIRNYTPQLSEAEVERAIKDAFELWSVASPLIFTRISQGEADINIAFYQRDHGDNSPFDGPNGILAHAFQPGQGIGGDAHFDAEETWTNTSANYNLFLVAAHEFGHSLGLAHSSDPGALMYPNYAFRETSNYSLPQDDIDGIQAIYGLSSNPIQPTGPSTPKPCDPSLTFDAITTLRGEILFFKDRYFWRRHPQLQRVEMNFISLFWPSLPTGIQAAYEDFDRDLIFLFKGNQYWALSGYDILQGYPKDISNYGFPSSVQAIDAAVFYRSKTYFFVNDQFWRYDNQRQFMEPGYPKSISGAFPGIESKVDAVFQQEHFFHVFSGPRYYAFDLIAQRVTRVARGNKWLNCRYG
Sequence of MMP-3h (P08254 100-477): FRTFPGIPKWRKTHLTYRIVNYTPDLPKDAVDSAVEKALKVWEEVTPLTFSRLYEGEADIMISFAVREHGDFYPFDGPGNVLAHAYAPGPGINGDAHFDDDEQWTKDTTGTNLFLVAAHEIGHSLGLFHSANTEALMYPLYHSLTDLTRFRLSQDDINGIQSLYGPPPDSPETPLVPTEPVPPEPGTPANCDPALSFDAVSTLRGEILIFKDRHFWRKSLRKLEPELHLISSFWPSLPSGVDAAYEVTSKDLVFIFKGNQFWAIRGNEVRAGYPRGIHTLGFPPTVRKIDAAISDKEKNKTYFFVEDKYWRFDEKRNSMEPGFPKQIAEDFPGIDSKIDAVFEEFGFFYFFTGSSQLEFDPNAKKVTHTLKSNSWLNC
Sequence of MMP-2h (P08253 110-660): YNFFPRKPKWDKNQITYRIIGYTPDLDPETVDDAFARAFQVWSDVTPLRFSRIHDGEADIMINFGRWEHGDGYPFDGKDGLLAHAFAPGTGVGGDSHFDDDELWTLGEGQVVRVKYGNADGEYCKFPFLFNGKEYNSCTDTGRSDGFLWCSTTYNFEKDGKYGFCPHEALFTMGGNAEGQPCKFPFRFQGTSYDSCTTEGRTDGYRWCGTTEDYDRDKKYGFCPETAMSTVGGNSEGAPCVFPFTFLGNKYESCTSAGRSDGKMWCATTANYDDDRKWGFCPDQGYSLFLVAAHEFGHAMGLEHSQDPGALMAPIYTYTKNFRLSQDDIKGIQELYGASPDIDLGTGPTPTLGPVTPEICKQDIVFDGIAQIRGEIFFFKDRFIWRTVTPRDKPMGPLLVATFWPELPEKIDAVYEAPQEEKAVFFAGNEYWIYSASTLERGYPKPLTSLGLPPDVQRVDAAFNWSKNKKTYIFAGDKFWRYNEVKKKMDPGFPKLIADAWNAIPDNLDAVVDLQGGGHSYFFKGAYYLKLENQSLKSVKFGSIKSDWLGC

Row | SMILES | Ki (MMP-12h; [1]) | Ki (MMP-9h; [2]) | Ki (MMP-8h; [3]) | Ki (MMP-13h; [4]) | Ki (MMP-7h; [5]) | Ki (MMP-2h; [6]) | Ki (MMP-10h; [7]) | Ki (MMP-14h; [8]) | Ki (MMP-3h; [9]) | Ki (MMP-1h; [10]) | inhibitory activity toward MMPs (in words) (human MMPs) | other results
1 | NC(=O)[C@H](CC(=O)O)NC(=O)[C@H](CCC(=O)O)NC(=O)CCc1ccc(-c2cc(-c3ccccc3)cs2)cc1 [Compound 101, (S)-5-((S)-1-amino-3-carboxy-1-oxopropan-2-ylamino)-5-oxo-4-(3-(4-(4-phenylthiophen-2-yl)phenyl)propanamido)pentanoic acid] | 2.56 nM | > 5000 nM | 379 nM | 933 nM | > 100000 nM | > 1000 nM | 571 nM | > 1000 nM | > 5000 nM | > 100000 nM |  | selectivity factor F = Ki MMP-x/Ki MMP-12 (human MMPs): > 100
2 | NC(=O)[C@H](CCC(=O)O)NC(=O)[C@H](CCC(=O)O)NC(=O)CCc1cc(-c2ccccc2)on1 [Compound 25, (S)-5-amino-4-((S)-4-carboxy-2-(3-(5-phenylisoxazol-3-yl)propanamido)butanamido)-5-oxopentanoic acid] | 160 nM | > 5000 nM | 332 nM | 550 nM |  | > 1000 nM | > 1000 nM | > 1000 nM | > 5000 nM |  | MMP inhibitors | 
3 | NC(=O)[C@H](CCC(=O)O)NC(=O)[C@H](CCC(=O)O)NC(=O)CCc1noc(-c2ccccc2)n1 [Compound 26, (S)-5-amino-4-((S)-4-carboxy-2-(3-(5-phenyl-1,2,4-oxadiazol-3-yl)propanamido)butanamido)-5-oxopentanoic acid] | > 1000 nM | > 1000 nM | > 5000 nM | > 1000 nM |  | > 5000 nM | > 5000 nM | > 5000 nM | > 5000 nM |  | do not have any inhibitory activity | 
4 | NC(=O)[C@H](CCC(=O)O)NC(=O)[C@H](CCC(=O)O)NC(=O)CCc1ccc(-c2ccc(-c3ccccc3)cc2)cc1 [Compound 61, (S)-5-amino-4-((S)-4-carboxy-2-(3-(4′-phenylbiphenyl-4-yl)propanamido)butanamido)-5-oxopentanoic acid] | 1.63 nM | > 1000 nM | 132 nM | 20 nM | 502 nM | 53 nM | 76 nM | > 1000 nM | 74 nM | > 5000 nM |  | 
5 | NC(=O)[C@H](CCC(=O)O)NC(=O)[C@H](CCC(=O)O)NC(=O)CCc1cn(-c2ccccc2)nn1 [Compound 24, (S)-5-amino-4-((S)-4-carboxy-2-(3-(1-phenyl-1H-1,2,3-triazol-4-yl)propanamido)butanamido)-5-oxopentanoic acid] | > 1000 nM | > 1000 nM | > 1000 nM | > 5000 nM |  | > 5000 nM | > 1000 nM | > 5000 nM | > 1000 nM |  | do not have any inhibitory activity | 
6 | NC(=O)[C@H](CCC(=O)O)NC(=O)[C@H](CCC(=O)O)NC(=O)CCc1csc(-c2ccccc2)n1 [Compound 27, (S)-5-amino-4-((S)-4-carboxy-2-(3-(2-phenylthiazol-4-yl)propanamido)butanamido)-5-oxopentanoic acid] | > 5000 nM | > 5000 nM | > 1000 nM | 900 nM |  | > 1000 nM | > 5000 nM | > 5000 nM | > 1000 nM |  | do not have any inhibitory activity | 
7 | O=C(O)CC[C@H](NC(=O)CCc1ccc(-c2cc(-c3ccccc3)cs2)cc1)C(=O)Nc1cccc(CC(=O)O)c1 [Compound 106, (S)-5-(3-(carboxymethyl)phenylamino)-5-oxo-4-(3-(4-(4-phenylthiophen-2-yl)phenyl)propanamido)pentanoic acid] | 4.3 nM | 396 nM | 675 nM | 132 nM | > 1000 nM | 339 nM | 318 nM | > 1000 nM | 791 nM | > 1000 nM |  | 
8 | NC(=O)[C@H](CCC(=O)O)NC(=O)[C@H](CCC(=O)O)NC(=O)CCc1cc(-c2ccc(-c3cccc(Cl)c3)cc2)no1 [Compound 3, (S)-5-amino-4-((S)-4-carboxy-2-(3-(3-(3′-chlorobiphenyl-4-yl)isoxazol-5-yl)propanamido)butanamido)-5-oxopentanoic acid] |  | 565 nM | 181 nM | 40 nM | > 1000 nM | 76 nM | 47 nM | > 1000 nM | 62 nM | > 10000 nM | quite a powerful inhibitor of MMPs 2, 3, 10, 12 and 13 | 
9 | NC(=O)[C@H](CCCC(=O)O)NC(=O)[C@H](CCC(=O)O)NC(=O)CCc1ccc(-c2cc(-c3ccccc3)cs2)cc1 [Compound 103, (S)-6-amino-5-((S)-4-carboxy-2-(3-(4-(4-phenylthiophen-2-yl)phenyl)propanamido)butanamido)-6-oxohexanoic acid] | 2.9 nM | > 5000 nM | 656 nM | 563 nM | > 5000 nM | > 1000 nM | 845 nM | > 1000 nM | > 5000 nM | > 10000 nM |  | selectivity factor F = Ki MMP-x/Ki MMP-12 (human MMPs): > 100
10 | N=c1ccc2c(-c3cc(C(=O)NCCCOCCOCCOCCCNC(=O)[C@H](CCC(=O)O)NC(=O)[C@H](CCC(=O)O)NC(=O)CCc4ccc(-c5cc(-c6ccccc6)cs5)cc4)ccc3C(=O)O)c3ccc(N)c(S(=O)(=O)O)c3oc-2c1S(=O)(=O)O [Compound 108] |  |  |  |  |  |  |  |  |  |  |  | Ki (MMP-12h): 15 nM; Selectivity factor/MMP12, MMP-12h (MMP-12h; Ki MMP-12h/Ki MMP-12): 1; Ki (MMP-9h): > 5000 nM; Selectivity factor/MMP12, MMP-9h (MMP-9h; Ki MMP-9h/Ki MMP-12): 333; Ki (MMP-8h): > 2500 nM; Selectivity factor/MMP12, MMP-8h (MMP-8h; Ki MMP-8h/Ki MMP-12): 170; Ki (MMP-13h): > 1000 nM; Selectivity factor/MMP12, MMP-13h (MMP-13h; Ki MMP-13h/Ki MMP-12): 66; Ki (MMP-7h): > 10000 nM; Selectivity factor/MMP12, MMP-7h (MMP-7h; Ki MMP-7h/Ki MMP-12): 670; Ki (MMP-2h): > 2500 nM; Selectivity factor/MMP12, MMP-2h (MMP-2h; Ki MMP-2h/Ki MMP-12): 170; Ki (MMP-10h): 833 nM; Selectivity factor/MMP12, MMP-10h (MMP-10h; Ki MMP-10h/Ki MMP-12): 55; Ki (MMP-14h): > 10000 nM; Selectivity factor/MMP12, MMP-14h (MMP-14h; Ki MMP-14h/Ki MMP-12): 670; Ki (MMP-3h): > 10000 nM; Selectivity factor/MMP12, MMP-3h (MMP-3h; Ki MMP-3h/Ki MMP-12): 670; Ki (MMP-1h): > 10000 nM; Selectivity factor/MMP12, MMP-1h (MMP-1h; Ki MMP-1h/Ki MMP-12): 670
11 | NC(=O)[C@H](CCC(=O)O)NC(=O)[C@H](CCC(=O)O)NC(=O)CCc1ccc(-c2cccs2)cc1 [Compound 80, (S)-5-amino-4-((S)-4-carboxy-2-(3-(4-(thiophen-2-yl)phenyl)propanamido)butanamido)-5-oxopentanoic acid] | 8.6 nM | > 1000 nM | 40 nM | 321 nM | > 1000 nM | 142 nM | 373 nM | > 1000 nM | > 1000 nM | > 100000 nM |  | 
